Results from paper PMC8599855, “Detection of cancer stem cells by EMT-specific biomarker-based peptide ligands” (Scientific Reports, 2021).

Test system: SAS-EGFP-Fluc tumor
Test: SAS xenograft mouse model: tumor burden by bioluminescence, CD44 in excised tumors
Type: in vivo
Experimental: Frozen tissues sections or cell culture slides were fixed in 4% paraformaldehyde, washed with PBS and permeated with 0.1% Triton X-100 for 5 min before blocking with 20% FBS for 10 min at 37 °C, followed by the incubation with anti-vimentin antibody (cat. MAB3400, Millipore, Bedford, MA, USA) at 4 °C overnight. Sections were washed three times in PBS, each wash lasting 5 min then stained with Cy5-conjugated goat anti- mouse IgG (1:1000, cat. ab6563, Abcam, Cambridge, UK) for 1 h in the dark. All slides were mounted with VECTASHIELD Mounting Medium with DAPI (cat. H-1200, Vector Labs, Burligame, CA, USA) and covered with cover glasses before visualization under a laser-scanning confocal microscope (Zeiss LSM 880, Jena, Germany) with Zen Blue software (ZEISS, Jena, Germany).
All animal procedures were performed in accordance with the Guide for Care and Use of Laboratory Animals and National Yang-Ming University’s IACUC number was 1080110. Immunodeficient male mice (BALB/cAnNCrj-nu/nu, six weeks old, 20 gm) were provided by National Laboratory Animal Center (NLAC), NARLabs, Taiwan. Mice were group-housed (6 animals per cage) in individually ventilated cages (IVC) systems and had unlimited access to food and water. […] For establishment of xenografts, 2 × 10^6 SAS-EGFP-Fluc cells in 100 μL phosphate-buffered saline (PBS) were injected subcutaneously into the animal's right shoulder and 2 × 10^6 SAS-wt cells were injected into the left leg. Growth of the implanted tumors was monitored twice a week and tumor volumes were estimated from caliper measurements according to the following formula: tumor volume = (lengthÍwidth^2) Í0.523. […]
Tumor-bearing mice were anaesthetized with 2% isoflurane and then injected D-luciferin (150 mg/kg body weight diluted in PBS) into the mouse peritoneum. […] The luminescent intensity at tumor sites was analyzed using living image software 3.2 (IVIS 50 Imaging System, Perkin Elmer, Waltham, MA, USA). Bioluminescent signal was recorded as mean photons/s/centimeter^2/steradian (photon/s/cm^2/sr).

For COc1cc2c(NC3CCN(C(C)C)CC3)nc(N3CCC(F)(F)CC3)nc2cc1OCCCN1CCCC1 [Unc0642], which “Tumor growth (Fluc signal)” value (Unc0642 2.5 mg/kg i.p. every two days for 3 times, alone, versus DMSO control, day 18) is on record?
The value was “clear delay in tumor growth”.

And the “Tumor growth (Fluc signal)” value (Unc0642 2.5 mg/kg i.p. plus 2 Gy IR, every two days for 3 times)?
The value was “no significant reduction was observed in Unc0642 plus IR treated mice until Day 21, but drastically dropped down on day 24”.

And the “CD44 expression in excised tumors” value (Unc0642/IR alone or Unc0642 plus IR groups versus control, IF staining)?
Its value is “higher CD44 expression”.
